Entries after “also recorded” stand apart in the source; their conditions may differ. No end group written: not given here.
Key:
hESC [1] = assay: hESC cell proliferation, trypan blue assay; assay type: cell-based, human; settings: E2 10 nM, P4 2 μM or E2+P4, 6 d; compared to untreated control cells
Method: (§1) FIG. 1. P4 differentiates hESC into neuroectoderm. (a) hESC were grown in TESR1 media—Li in the presence of E2 (10 nM), P4 (2 μM) or E2 (10 nM)+P4 (2 μM) for 6 d and cell proliferation measured using the trypan blue assay. Results are expressed as mean±SEM, n=3 (*p<0.05, **p<0.005 compared to 6 d control). (b) Equal amounts of protein from cell lysates of hESC treated for 9 d as described above were analyzed by immunoblot using a monoclonal antibody against nestin (clone 10C2; Chemicon, Calif., USA). (c) hESC were cultured for 4 d, enzymatically lifted and placed into EB media (containing serum) and rocked gently for an additional 4 d prior to being placed in one of two neural induction medias for an additional 11 days, where P4 was either absence or present. During this transition from EB to rosettes, colony structures treated with P4 also were treated with a PR antagonist (RU-486; 20 μM) or ER antagonist (ICI 182,780) for 11 d. At 19 d, morphological observation and molecular analysis were performed. […] (ii) hESC structure in the absence of P4. (iii) PR antagonist treated rosettes (RU-486, 20 μM). (iv) ER antagonist (ICI 182,780). (d) Equal amounts of protein from cell lysates of the above structures were analyzed by immunoblot with the monoclonal antibody against human nestin.

nestin = nestin immunoblot of hESC / EB-rosette structure lysates; assay type: cell-based, human
Method: as §1

hESC [2] = assay: EB and neuroectodermal rosette/NPC formation from hESC, morphological observation; assay type: cell-based, human; settings: neural induction media with P4, antagonist for 11 d (RU-486 20 μM); observed at 19 d
Method: as §1

[3] = system: Tg2576 mice carrying the Swedish AβPP mutation; settings: aged Tg2576 transgenic mice; cited from earlier work
rat hippocampal slices = assay: extracellular field responses in CA1 of isolated hippocampal slices; assay type: cell-based; settings: 50 nM
Method: FIG. 3. GnRH1 increases neuronal excitability in hippocampal slices from old rats. Typical traces from hippocampal slice cut transversely at 500 μm thickness from 37 day (A) and 19 month (B) old male rats. Orthodromic extracellular field responses were recorded in the cell body layer of the CA1. Responses were evoked by a bipolar electrode with a constant current stimuli (50 μs duration) delivered every 30 s by electrodes placed in the schaeffer collaterals. 50 nM GnRH1 was used. Mean values are shown in C., n=5 slices each for young rats and n=3 slices each for old rats. Slices from two young and two old animals were used. Superfusion of human GnRH evoked a 50% increase in the maximum amplitude of population spikes in hippocampal slices from old rats compared to controls (FIGS. 3B, C).

## C[C@]12CC[C@@H]3c4ccc(O)cc4CC[C@H]3[C@@H]1CC[C@@H]2O [E2, estradiol]
hESC [1]
  decrease in the rate of hESC proliferation: 16%

## C[C@]12CC[C@@H]3c4ccc(O)cc4C[C@@H](CCCCCCCCC[S+]([O-])CCCC(F)(F)C(F)(F)F)[C@H]3[C@@H]1CC[C@@H]2O (stereo partly drawn) [ICI 182,780]
nestin; antagonist for 11 d (RU-486 20 μM), immunoblot at 19 d
  nestin expression in antagonist treated structures: absence of nestin
hESC [2]
  EB and neuroectodermal rosette/NPC formation: No rosettes were detected

## CC(=O)[C@H]1CC[C@H]2[C@@H]3CCC4=CC(=O)CC[C@]4(C)[C@H]3CC[C@]12C [P4, pregn-4-ene-3,20-dione]
hESC [1]
  decrease in the rate of hESC proliferation: 29%
nestin; hESC treated for 9 d, E2 10 nM, P4 2 μM, immunoblot
  nestin expression in hESC: increased the expression of the neuroectodermal marker nestin; also recorded: induces nestin expression
hESC [2]
  EB and neuroectodermal rosette/NPC formation: a minimum of three rosette structures

## CCNC(=O)[C@@H]1CCCN1C(=O)[C@H](CCCNC(=N)N)NC(=O)[C@H](CC(C)C)NC(=O)[C@@H](CC(C)C)NC(=O)[C@H](Cc1ccc(O)cc1)NC(=O)[C@H](CO)NC(=O)[C@H](Cc1c[nH]c2ccccc12)NC(=O)[C@H](Cc1c[nH]cn1)NC(=O)[C@@H]1CCC(=O)N1 [leuprolide acetate]
[3]
  Aβ deposition: halts Aβ deposition
  cognitive performance: improves cognitive performance

## GnRH1: human gonadotropin releasing hormone, superfused at 50 nM (QHWSYGLRPG; ends and bridges not checked; UniProt P01148 24-33, looked up)
Rat hippocampal slices; hippocampal slices from old (19 month old) rats
  increase in the maximum amplitude of population spikes compared to controls: 50%
Rat hippocampal slices; hippocampal slices from young (37 day old) rats
  increase in neuronal excitability compared to controls: 22%
Rat hippocampal slices; old rats, n=3, control 2.54±0.18 mV, p=0.05
  maximum amplitude of field responses, cell body layer of CA1: 3.99±0.84 mV
Rat hippocampal slices; young rats, n=5, control 7.0±1.4 mV, p=0.548
  maximum amplitude of field responses, cell body layer of CA1: 7.9±2.7 mV
